Assays:
[1] = biological target: T1, histamine receptor H1 (Homo sapiens, UniProt P35367); assay: Inhibition of binding of a ligand (Pyrilamine) to histamine receptor H1; conditions: as compared to the unsubstituted vinyl counterpart (106 vs compound 415; 85 vs compound 95)
Protocol: The number and extent of undesirable side effects increases with increasing affinity for the H1 receptor Thus, in one aspect, compounds of the formulae herein display reduced, low or no affinity to histamine receptor H1. […] Inhibition of binding of a ligand to H1 for all variations detailed herein is determined by a suitable assay known in the art such as the assay described herein. […] In one variation, compounds of the formulae herein inhibit binding of a ligand to H1 by between about 50% to about 80%. […] In one variation, compounds of the formulae herein inhibit binding of Pyrilamine to H1 as determined in the assay described herein. In a further variation, percent inhibition of binding to H1 is measured by assays detailed herein.
The binding properties of compounds disclosed herein to a panel of aminergic G protein-coupled receptors including adrenergic receptors, dopamine receptors, serotonin receptors, histamine receptors and an imidazoline receptor may be determined. Binding properties may be assessed by methods known in the art, such as competitive binding assays. In one variation, compounds are assessed by the binding assays detailed herein. […]
In one aspect, DDT compounds display low affinity to histamine receptor H1. […] Inhibition of binding of a ligand to H1 for all variations detailed herein is determined by a suitable assay known in the art such as the assay described herein. […]

[2] = biological target: T1, histamine receptor H1; assay: Histamine H1 radioligand binding ([3H]Pyrilamine)
Summary of the method: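 Values are percent inhibition of specific [3H]pyrilamine (1.2 nM) binding with compounds at ≤1 μM (1% DMSO vehicle); 180 min incubation at 25 °C, pH 7.4 Tris buffer, on CHO-expressed human H1 receptor; 1 μM pyrilamine defined nonspecific binding, bound ligand counted after filtration.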

[3] = biological target: human dopamine D2L receptor (Homo sapiens, UniProt P14416); assay: Dopamine D2L radioligand binding ([3H]Spiperone); conditions: percent inhibition of specific binding, compound at 1 μM
Description: Non-specific binding was estimated in the presence of […] Haloperidol. Receptor proteins were filtered and washed, the filters were then counted to determine [^3H]Spiperone specifically bound. […] Biochemical assay results are presented as the percent inhibition of specific binding in Table 9.

[4] = biological target: T2, human recombinant serotonin (5-Hydroxytryptamine) 5-HT2A receptor (Homo sapiens, UniProt P28223); assay: Serotonin 5-HT2A radioligand binding ([3H]Ketanserin)
T2 construct: expressed in transfected cells; host or cells: Chinese hamster ovary (CHO-K1) cells
Protocol: Compounds of the invention were incubated with 0.5 nM [^3H]Ketanserin for 60 min. at 25° C. Non-specific binding was estimated in the presence of 1 μM Mianserin. Receptor proteins were filtered and washed, the filters were then counted to determine [^3H]Ketanserin specifically bound.

[5] = biological target: T3, human recombinant serotonin (5-Hydroxytryptamine) 5-HT2C receptor (Homo sapiens, UniProt P28335); assay: Serotonin 5-HT2C radioligand binding ([3H]Mesulergine); conditions: compound at 0.1 μM; read-out: Inhibition of ligand binding, Serotonin 5-HT2C (percent inhibition of specific binding)
T3 construct: expressed in transfected cells; host or cells: Chinese hamster ovary (CHO-K1) cells
T3 sequence (P28335 33-458): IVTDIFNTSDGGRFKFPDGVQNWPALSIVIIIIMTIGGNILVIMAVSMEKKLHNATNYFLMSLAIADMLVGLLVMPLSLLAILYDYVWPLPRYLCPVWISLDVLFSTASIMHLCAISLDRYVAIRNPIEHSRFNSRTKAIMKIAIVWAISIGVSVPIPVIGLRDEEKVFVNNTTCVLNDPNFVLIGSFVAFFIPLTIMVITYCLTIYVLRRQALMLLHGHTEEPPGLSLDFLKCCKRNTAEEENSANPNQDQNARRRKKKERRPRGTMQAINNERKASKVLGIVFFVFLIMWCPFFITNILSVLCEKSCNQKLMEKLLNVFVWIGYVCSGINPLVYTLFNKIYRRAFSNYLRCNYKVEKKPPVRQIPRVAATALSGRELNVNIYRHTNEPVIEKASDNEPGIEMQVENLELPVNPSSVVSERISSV
Summary of the method: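 Compounds tested at 1 μM or lower (1% DMSO vehicle) for displacement of 1 nM [3H]Mesulergine over 60 min at 25° C. Specific binding determined by filtration counting, with 1 μM Mianserin defining non-specific binding; values are percent inhibition.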

[6] = biological target: T4, human recombinant serotonin (5-Hydroxytryptamine) 5-HT6 receptor (Homo sapiens, UniProt P50406); assay: Serotonin 5-HT6 radioligand binding ([3H]LSD)
T4 construct: expressed in transfected cells; host or cells: human HeLa cells
Protocol: Compounds of the invention were incubated with 1.5 nM [3H]Lysergic acid diethylamide (LSD) for 120 min. at 37° C. […] Receptor proteins were filtered and washed, the filters were then counted to determine [3H]LSD specifically bound. Compounds were screened at 1 μM or lower, using 1% DMSO as vehicle. Biochemical assay results are presented as the percent inhibition of specific binding in Table 10.

[7] = test system: male Wistar rat; assay: Conditioned avoidance response (CAR) model; assay type: in vivo; conditions: 0.3 mg/kg, s.c.
Protocol: All currently approved antipsychotic agents (typical and atypical) are known to have the ability to selectively suppress conditioned avoidance response (CAR) behavior in the rat. This evidence makes CAR one of the primary tests to assess antipsychotic activity of novel compounds.
The effects of Compound Nos. 83, 88 and 90, at concentrations including 0.1, 0.3, 1, 3, 10 and 20 mg/kg, p.o., in the conditioned avoidance response model were assessed in the male Wistar rat. Risperidone (0.3 mg/kg, s.c.) was used in the present study as a positive reference compound.
For each testing session, animals were first placed for a 4-min. habituation period in a shuttlebox with an electrified grid floor. Then, rats were submitted to 30 trials spaced by intertribal intervals varying at random between 20 and 30 sec. Each trial consisted of a 10-sec. light stimulus (conditioned stimulus, CS) followed by a 10-sec. electric foot shock (unconditioned stimulus, US) in presence of the light presented in the compartment where the rat is located. If the animal moved to the other compartment during the initial 10-sec. of the trial, the light was terminated (no shock was delivered) and the response was recorded as an avoidance response. If the rat changed compartment during the foot shock, the light and the shock were terminated and the response was recorded as an unconditioned response. […] If a response was made during an intertrial interval, the response was recorded as an intertrial crossing. Training was performed 5 days per week with one session of 30 trials per day, until rats reached the performance criterion of 80% of avoidance response on at least two consecutive daily sessions. […] A minimal wash-out period of 48 hours was allowed between 2 treatments. During the wash-out period, animals were trained until they recovered an avoidance performance of at least 80%.
Statistical analysis was performed using a Friedman two-way ANOVA by ranks followed by the Wilcoxon matched-pairs signed-ranks test to test each dose of the test compound administered versus vehicle control treated rats.

T1 sequence (P35367 whole entry): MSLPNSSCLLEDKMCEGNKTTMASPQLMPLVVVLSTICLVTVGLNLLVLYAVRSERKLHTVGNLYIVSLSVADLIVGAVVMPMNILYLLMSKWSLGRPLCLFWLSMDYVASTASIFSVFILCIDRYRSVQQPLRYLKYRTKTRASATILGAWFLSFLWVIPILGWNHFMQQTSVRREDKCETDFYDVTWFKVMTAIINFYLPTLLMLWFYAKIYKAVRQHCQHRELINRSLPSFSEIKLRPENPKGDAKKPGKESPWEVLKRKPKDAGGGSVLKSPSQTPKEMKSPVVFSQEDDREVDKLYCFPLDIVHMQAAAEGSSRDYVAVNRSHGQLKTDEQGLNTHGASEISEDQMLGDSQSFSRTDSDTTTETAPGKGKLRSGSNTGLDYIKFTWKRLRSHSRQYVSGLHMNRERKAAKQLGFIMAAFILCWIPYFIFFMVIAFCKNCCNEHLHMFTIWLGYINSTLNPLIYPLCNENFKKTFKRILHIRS
T4 sequence (P50406 whole entry): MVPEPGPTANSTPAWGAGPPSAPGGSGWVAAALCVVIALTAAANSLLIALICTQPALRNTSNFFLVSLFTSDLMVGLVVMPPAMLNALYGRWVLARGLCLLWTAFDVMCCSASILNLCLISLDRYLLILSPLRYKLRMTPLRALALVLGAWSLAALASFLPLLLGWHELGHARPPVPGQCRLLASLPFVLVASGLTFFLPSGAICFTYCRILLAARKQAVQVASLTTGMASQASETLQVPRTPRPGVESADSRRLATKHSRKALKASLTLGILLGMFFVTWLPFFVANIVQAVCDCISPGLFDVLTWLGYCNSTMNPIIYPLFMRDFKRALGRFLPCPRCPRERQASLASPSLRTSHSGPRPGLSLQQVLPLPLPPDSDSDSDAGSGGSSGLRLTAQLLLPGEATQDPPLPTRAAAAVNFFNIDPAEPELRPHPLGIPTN
T2 sequence (P28223 whole entry): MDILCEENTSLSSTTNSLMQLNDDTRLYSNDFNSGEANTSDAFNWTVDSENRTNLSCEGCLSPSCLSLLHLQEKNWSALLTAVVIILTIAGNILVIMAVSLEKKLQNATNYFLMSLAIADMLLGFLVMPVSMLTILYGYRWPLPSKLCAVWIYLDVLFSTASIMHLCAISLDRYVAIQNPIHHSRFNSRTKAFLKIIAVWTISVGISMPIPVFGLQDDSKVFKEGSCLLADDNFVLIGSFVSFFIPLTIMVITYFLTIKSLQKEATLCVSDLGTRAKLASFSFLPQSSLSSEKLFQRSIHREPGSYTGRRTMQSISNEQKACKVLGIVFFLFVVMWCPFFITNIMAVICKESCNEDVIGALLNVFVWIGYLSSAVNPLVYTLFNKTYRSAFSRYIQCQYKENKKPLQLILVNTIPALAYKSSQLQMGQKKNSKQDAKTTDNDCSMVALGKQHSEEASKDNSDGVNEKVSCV
Sequence of human dopamine D2L receptor (P14416 whole entry): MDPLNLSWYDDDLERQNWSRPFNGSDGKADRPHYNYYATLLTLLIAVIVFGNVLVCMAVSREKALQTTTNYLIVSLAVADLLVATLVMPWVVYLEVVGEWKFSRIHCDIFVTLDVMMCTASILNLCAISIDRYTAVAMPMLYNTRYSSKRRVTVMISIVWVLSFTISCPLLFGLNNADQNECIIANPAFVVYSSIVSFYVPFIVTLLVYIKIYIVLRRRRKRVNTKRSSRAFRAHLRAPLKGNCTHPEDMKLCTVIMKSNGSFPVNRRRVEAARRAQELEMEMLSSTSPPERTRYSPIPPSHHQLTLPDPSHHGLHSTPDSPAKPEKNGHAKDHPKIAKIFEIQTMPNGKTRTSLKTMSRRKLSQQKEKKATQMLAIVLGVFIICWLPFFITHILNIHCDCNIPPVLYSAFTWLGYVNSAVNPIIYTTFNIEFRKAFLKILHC

SMILES | binding affinity to H1 [1] | Histamine Binding (1 μM) H1, percent inhibition of specific binding ([2]; 1 μM) [%] | inhibition at 1 µM ([2]; read-out: Histamine Binding (1 μM) H1, percent inhibition of specific binding, 1 μM) [%] | Inhibition of ligand binding, Dopamine D2L ([3]; 1 µM) [%] | inhibition at 1 µM ([3]; read-out: Inhibition of ligand binding, Dopamine D2L) [%] | Inhibition of ligand binding, Serotonin 5-HT2A (percent inhibition of specific binding) ([4]; compound at 0.1 μM, 0.1 µM) [%] | inhibition at 0.1 µM ([4]; read-out: Inhibition of ligand binding, Serotonin 5-HT2A (percent inhibition of specific binding), compound at 0.1 μM) [%] | inhibition at 0.1 µM [5] [%] | Inhibition of ligand binding, Serotonin 5-HT6 (percent inhibition of specific binding) ([6]; compound at 0.1 μM, 0.1 µM) [%] | inhibition at 0.1 µM ([6]; compound at 0.1 μM, read-out: Inhibition of ligand binding, Serotonin 5-HT6 (percent inhibition of specific binding)) [%] | inhibition at 1 µM ([6]; compound at 1 μM, read-out: Inhibition of ligand binding, Serotonin 5-HT6 (percent inhibition of specific binding)) [%] | number of avoidance responses, change versus pretreatment [7] [%] | number of intertrial crossings, change versus pretreatment [7] [%] | number of escape failures ([7]; increased in 7/12 animals, 0±0 before treatment) [escape failures]
C/C(=C\n1c2c(c3cc(C)ccc31)CN(C)CC2)c1ccc(C)nc1 [compound 85, (E)-2,3,4,5-tetrahydro-2,8-dimethyl-5-(2-(6-methylpyridin-3-yl)prop-1-enyl)-1H-pyrido[4,3-b]indole] | lower binding affinity to H1 | 13 | 9 | 57 | 43 | 98 | 88 | 92 | 19 | 22 | 68 | – | – | –
Cc1nc2n(c(=O)c1CCN1CCC(c3noc4cc(F)ccc34)CC1)CCCC2 [risperidone, reference compound] | – | – | – | – | – | – | – | – | – | – | – | −61 | −69 | 4±1
